Data: ChEMBL document CHEMBL6078643, “Palladium-Mediated Bioorthogonal System for Prodrug Activation of N-Benzylbenzamide-Containing Tubulin Polymerization Inhibitors for the Treatment of Solid Tumors” (J Med Chem, 2024)
pIC50: −log10 of the molar value. The source made the active and inactive calls. The calls are words filed in the database; no cut-off is given here.

Columns and labels:
K562 [1] = assay: Antiproliferative activity against human K562 cells assessed as reduction in cell viability incubated for 72 hrs by CCK-8 assay; type: functional, cell-based; settings: K562, 72 h
[2] = Select factor, ratio of test compound IC50 to 4-(((4-((4-methoxyphenyl)(methyl)amino)quinazolin-2-yl)amino)methyl)phenol IC50 for antiproliferative activity against human THLE-2 cells assessed as reduction in cell viability incubated for 72 hrs by CCK-8 assay; type: toxicity, cell-based; settings: read-out: Ratio IC50
H22 [3] = assay: Select factor, ratio of test compound IC50 to 4-(((4-((4-methoxyphenyl)(methyl)amino)quinazolin-2-yl)amino)methyl)phenol IC50 for antiproliferative activity against mouse H22 cells assessed as reduction in cell viability incubated for 72 hrs by CCK-8 assay; type: functional
H22 [4] = assay: Antiproliferative activity against mouse H22 cells assessed as reduction in cell viability incubated for 72 hrs by CCK-8 assay; type: functional, cell-based; settings: H22, 72 h
HepG2 [5] = assay: Antiproliferative activity against human HepG2 cells assessed as reduction in cell viability incubated for 72 hrs by CCK-8 assay; type: functional, cell-based; settings: HepG2, 72 h
HepG2 [6] = assay: Select factor, ratio of test compound IC50 to 4-(((4-((4-methoxyphenyl)(methyl)amino)quinazolin-2-yl)amino)methyl)phenol IC50 for antiproliferative activity against human HepG2 cells assessed as reduction in cell viability incubated for 72 hrs by CCK-8 assay; type: functional
[7] = Antiproliferative activity against human THLE-2 cells assessed as reduction in cell viability incubated for 72 hrs by CCK-8 assay; type: toxicity, cell-based
[8] = Prodrug release in PBS buffer assessed as half release time of 4-(((4-((4-methoxyphenyl)(methyl)amino)quinazolin-2-yl)amino)methyl)phenol in presence of palladium resins at 75 uM by HPLC analysis; type: ADME
K562 [9] = assay: Select factor, ratio of test compound IC50 to 4-(((4-((4-methoxyphenyl)(methyl)amino)quinazolin-2-yl)amino)methyl)phenol IC50 for antiproliferative activity against human K562 cells assessed as reduction in cell viability incubated for 72 hrs by CCK-8 assay; type: functional
[10] = Select factor, ratio of test compound IC50 to 5-fluoro-N-(3-hydroxy-4-methoxybenzyl)-2-morpholinobenzamide IC50 for antiproliferative activity against human THLE-2 cells assessed as reduction in cell viability incubated for 72 hrs by CCK-8 assay; type: toxicity, cell-based; settings: read-out: Ratio IC50
[11] = Prodrug release in PBS buffer assessed as half release time of 5-fluoro-N-(3-hydroxy-4-methoxybenzyl)-2-morpholinobenzamide in presence of palladium resins at 75 uM by HPLC analysis; type: ADME
HepG2 [12] = assay: Select factor, ratio of test compound IC50 to 5-fluoro-N-(3-hydroxy-4-methoxybenzyl)-2-morpholinobenzamide IC50 for antiproliferative activity against human HepG2 cells assessed as reduction in cell viability incubated for 72 hrs by CCK-8 assay; type: functional
H22 [13] = assay: Select factor, ratio of test compound IC50 to 5-fluoro-N-(3-hydroxy-4-methoxybenzyl)-2-morpholinobenzamide IC50 for antiproliferative activity against mouse H22 cells assessed as reduction in cell viability incubated for 72 hrs by CCK-8 assay; type: functional
K562 [14] = assay: Select factor, ratio of test compound IC50 to 5-fluoro-N-(3-hydroxy-4-methoxybenzyl)-2-morpholinobenzamide IC50 for antiproliferative activity against human K562 cells assessed as reduction in cell viability incubated for 72 hrs by CCK-8 assay; type: functional
Tubulin (Homo sapiens) [15] = target: T1, Tubulin (Homo sapiens) (UniProt P68371+Q9H4B7+P0DPH7+P68366+Q13509+Q71U36+P04350+Q3ZCM7+P07437+P68363+Q9BQE3+Q6PEY2+Q13885+Q9BVA1+Q9BUF5); assay: In vivo inhibition of tubulin polymerization in human HepG2 cells xenografted in Balb/c mouse assessed as decrease in beta tubulin expression at 20 mg/kg, iv administered daily for 14 days incubated for 24 hrs by Western blot analysis; type: functional, organism-based; settings: time 14.0 day
HepG2 [16] = assay: Antitumor activity against human HepG2 cells xenografted in Balb/c mouse assessed as cell necrosis at 20 mg/kg, iv administered daily for 14 days by H and E staining based analysis; type: functional, organism-based; settings: time 14.0 day
Tubulin (Homo sapiens) [17] = target: T1, Tubulin (Homo sapiens); assay: Inhibition of tubulin polymerization in human K562 cells assessed as decrease in alpha tubulin expression at 16 nM incubated for 24 hrs by Western blotting analysis; type: cell-based
K562 [18] = assay: Induction of apoptosis in human K562 cells assessed as late apoptotic cells at 20 nM incubated for 72 hrs by Annexin V-APC staining based flow cytometric analysis (reference value: 1.36%); type: functional
Tubulin (Homo sapiens) [19] = target: T1, Tubulin (Homo sapiens); assay: Inhibition of tubulin polymerization in human HepG2 cells assessed as decrease in beta tubulin expression at 19 nM incubated for 24 hrs by Western blotting analysis; type: cell-based
K562 [20] = assay: Induction of cell cycle arrest in human K562 cells assessed as accumulation of cells at G1 phase at 20 nM incubated for 72 hrs by PI staining based flow cytometric analysis ( Rvb = 77.46 %); type: functional
Tubulin (Homo sapiens) [21] = target: T1, Tubulin (Homo sapiens); assay: In vivo inhibition of tubulin polymerization in human HepG2 cells xenografted in Balb/c mouse assessed as decrease in alpha tubulin expression at 20 mg/kg, iv administered daily for 14 days incubated for 24 hrs by Western blot analysis; type: functional, organism-based; settings: time 14.0 day
HepG2 [22] = assay: Antiproliferative activity against human HepG2 cells at 100 nM incubated for 72 hrs in presence of palladium resins by CCK-8 assay; type: functional, cell-based
[23] = target: Bcr/Abl fusion protein (Homo sapiens) (UniProt P00519+P11274); assay: Inhibition of Bcr-Abl in human K562 cells at 16 nM incubated for 24 hrs by Western blotting analysis; type: cell-based
K562 [24] = assay: Induction of cell cycle arrest in human K562 cells assessed as accumulation of cells at S phase at 20 nM incubated for 72 hrs by PI staining based flow cytometric analysis ( Rvb = 14.04 %); type: functional
Tubulin (Homo sapiens) [25] = target: T1, Tubulin (Homo sapiens); assay: Inhibition of tubulin polymerization in human HepG2 cells assessed as decrease in alpha tubulin expression at 19 nM incubated for 24 hrs by Western blotting analysis; type: cell-based
Tubulin (Homo sapiens) [26] = target: T1, Tubulin (Homo sapiens); assay: Inhibition of tubulin polymerization in human K562 cells assessed as decrease in polymerized alpha tubulin level at 16 nM incubated for 24 hrs by Western blotting analysis; type: cell-based
K562 [27] = assay: Induction of apoptosis in human K562 cells assessed as early apoptotic cells at 20 nM incubated for 72 hrs by Annexin V-APC staining based flow cytometric analysis (reference value: 2.78%); type: functional
HepG2 [28] = assay: Antitumor activity against human HepG2 cells xenografted in Balb/c mouse assessed as cell necrosis at 20 mg/kg, iv administered daily for 14 days by TUNEL staining based analysis; type: functional, organism-based; settings: time 14.0 day
HepG2 [29] = assay: Antitumor activity against human HepG2 cells xenografted in Balb/c mouse assessed as tumor growth inhibition at 20 mg/kg, iv administered daily for 14 days relative to control; type: functional; settings: HepG2, 336 h, time 14 day, read-out: TGI
Tubulin (Homo sapiens) [30] = target: T1, Tubulin (Homo sapiens); assay: Inhibition of tubulin polymerization in human K562 cells assessed as decrease in beta tubulin expression at 16 nM incubated for 24 hrs by Western blotting analysis; type: cell-based
K562 [31] = assay: Antiproliferative activity against human K562 cells at 100 nM incubated for 72 hrs in presence of palladium resins by CCK-8 assay; type: functional, cell-based
Tubulin (Homo sapiens) [32] = target: T1, Tubulin (Homo sapiens); assay: Disruption of microtubule organization in human K562 cells at 20 nM incubated for 72 hrs by DAPI staining based confocal microscopic analysis; type: cell-based
Tubulin (Homo sapiens) [33] = target: T1, Tubulin (Homo sapiens); assay: Inhibition of tubulin polymerization in human HepG2 cells assessed as decrease in polymerized alpha tubulin level at 19 nM incubated for 24 hrs by Western blotting analysis; type: cell-based
K562 [34] = assay: Induction of cell cycle arrest in human K562 cells assessed as accumulation of cells at G2 phase at 20 nM incubated for 72 hrs by PI staining based flow cytometric analysis ( Rvb = 8.5 %); type: functional
K562 [35] = assay: Induction of apoptosis in human K562 cells assessed as necrotic cells at 20 nM incubated for 72 hrs by Annexin V-APC staining based flow cytometric analysis (reference value: 1.65%); type: functional
K562 [36] = assay: Induction of apoptosis in human K562 cells assessed as viable cells at 20 nM incubated for 72 hrs by Annexin V-APC staining based flow cytometric analysis (reference value: 94.21%); type: functional; settings: read-out: Activity

Chain of Bcr/Abl fusion protein (Homo sapiens) (P00519 whole entry, looked up, the tested form may be a part): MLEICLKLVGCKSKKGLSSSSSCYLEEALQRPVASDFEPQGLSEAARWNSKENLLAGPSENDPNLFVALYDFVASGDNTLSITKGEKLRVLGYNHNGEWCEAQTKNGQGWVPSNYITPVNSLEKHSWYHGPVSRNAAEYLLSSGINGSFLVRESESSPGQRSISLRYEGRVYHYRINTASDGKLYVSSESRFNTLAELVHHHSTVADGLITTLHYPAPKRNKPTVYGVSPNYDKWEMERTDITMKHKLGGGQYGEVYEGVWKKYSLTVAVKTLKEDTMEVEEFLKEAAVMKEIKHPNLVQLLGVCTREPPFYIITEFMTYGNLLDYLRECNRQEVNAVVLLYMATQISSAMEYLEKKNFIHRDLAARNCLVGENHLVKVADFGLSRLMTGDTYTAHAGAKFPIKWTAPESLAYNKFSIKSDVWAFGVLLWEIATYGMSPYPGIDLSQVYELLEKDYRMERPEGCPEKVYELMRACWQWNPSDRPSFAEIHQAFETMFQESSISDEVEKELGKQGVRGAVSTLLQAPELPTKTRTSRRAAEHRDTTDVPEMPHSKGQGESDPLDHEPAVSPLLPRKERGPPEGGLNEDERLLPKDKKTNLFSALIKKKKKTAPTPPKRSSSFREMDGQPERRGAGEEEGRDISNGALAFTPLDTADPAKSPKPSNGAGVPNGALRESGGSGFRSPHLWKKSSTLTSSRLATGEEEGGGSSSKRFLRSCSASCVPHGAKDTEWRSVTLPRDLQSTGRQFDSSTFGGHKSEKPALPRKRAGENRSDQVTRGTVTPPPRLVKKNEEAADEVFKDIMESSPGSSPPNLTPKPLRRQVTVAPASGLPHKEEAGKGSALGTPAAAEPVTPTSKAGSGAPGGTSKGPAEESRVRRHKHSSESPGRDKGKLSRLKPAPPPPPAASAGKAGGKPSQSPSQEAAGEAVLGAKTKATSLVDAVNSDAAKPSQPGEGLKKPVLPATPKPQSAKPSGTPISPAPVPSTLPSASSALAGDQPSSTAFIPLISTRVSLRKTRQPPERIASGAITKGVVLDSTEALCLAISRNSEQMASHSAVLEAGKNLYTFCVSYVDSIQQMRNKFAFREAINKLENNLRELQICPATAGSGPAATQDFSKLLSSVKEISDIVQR
Chain of Bcr/Abl fusion protein (Homo sapiens) (P11274 whole entry, looked up, the tested form may be a part): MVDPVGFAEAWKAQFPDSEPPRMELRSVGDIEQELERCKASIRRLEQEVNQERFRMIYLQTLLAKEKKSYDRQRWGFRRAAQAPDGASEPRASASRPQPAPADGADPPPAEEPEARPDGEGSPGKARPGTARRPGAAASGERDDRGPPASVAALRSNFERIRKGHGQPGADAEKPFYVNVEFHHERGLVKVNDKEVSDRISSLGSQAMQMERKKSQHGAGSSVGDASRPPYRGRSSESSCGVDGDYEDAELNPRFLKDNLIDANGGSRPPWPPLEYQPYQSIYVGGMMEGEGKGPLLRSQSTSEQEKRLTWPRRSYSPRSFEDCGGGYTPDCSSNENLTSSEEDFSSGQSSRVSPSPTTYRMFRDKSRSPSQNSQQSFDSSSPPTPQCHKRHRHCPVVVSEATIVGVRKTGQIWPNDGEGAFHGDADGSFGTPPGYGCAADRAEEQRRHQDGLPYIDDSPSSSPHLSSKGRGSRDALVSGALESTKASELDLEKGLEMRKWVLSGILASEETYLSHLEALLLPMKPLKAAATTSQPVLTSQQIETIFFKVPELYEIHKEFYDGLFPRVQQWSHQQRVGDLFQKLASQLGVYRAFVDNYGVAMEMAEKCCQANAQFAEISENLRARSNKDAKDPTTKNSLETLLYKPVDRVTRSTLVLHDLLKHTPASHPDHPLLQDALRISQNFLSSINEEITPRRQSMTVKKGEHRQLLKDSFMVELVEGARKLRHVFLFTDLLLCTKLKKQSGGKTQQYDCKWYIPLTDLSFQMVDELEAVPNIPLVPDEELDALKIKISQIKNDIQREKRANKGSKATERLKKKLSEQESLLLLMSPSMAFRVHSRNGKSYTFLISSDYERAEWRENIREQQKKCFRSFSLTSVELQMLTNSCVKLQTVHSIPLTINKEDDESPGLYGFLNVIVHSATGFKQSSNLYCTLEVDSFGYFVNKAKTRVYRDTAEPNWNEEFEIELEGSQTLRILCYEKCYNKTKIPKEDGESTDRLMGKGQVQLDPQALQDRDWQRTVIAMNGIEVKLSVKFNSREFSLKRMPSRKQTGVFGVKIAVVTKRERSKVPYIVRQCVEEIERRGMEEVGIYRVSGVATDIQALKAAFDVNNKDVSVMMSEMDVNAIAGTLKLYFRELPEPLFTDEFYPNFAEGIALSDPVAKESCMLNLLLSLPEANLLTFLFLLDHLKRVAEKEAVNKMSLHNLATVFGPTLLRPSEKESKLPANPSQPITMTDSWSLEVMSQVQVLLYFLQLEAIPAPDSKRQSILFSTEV

C=CCOc1ccc(CNc2nc(N(C)c3ccc(OC)cc3)c3ccccc3n2)cc1
pIC50 (K562 [1]): 6.30 | selectivity ratio at 72 h [2]: 7.8 | Ratio IC50 (H22 [3]): 14.8 | pIC50 (H22 [4]): 6.54 | pIC50 (HepG2 [5]): 6.40 | Ratio IC50 (HepG2 [6]): 27.9 | IC50 at 72 h [7]: 353 nM | t1/2 [8]: > 24 h | Ratio IC50 (K562 [9]): 25.7

C#CC(C)(C)Oc1cc(CNC(=O)c2cc(F)ccc2N2CCOCC2)ccc1OC
selectivity ratio at 72 h [10]: 62.2 | pIC50 (K562 [1]): 6.34 | t1/2 [11]: 14.5 h | pIC50 (H22 [4]): 6.35 | Ratio IC50 (HepG2 [12]): 57.8 | pIC50 (HepG2 [5]): 5.96 | Ratio IC50 (H22 [13]): 21.9 | IC50 at 72 h [7]: 1330 nM | Ratio IC50 (K562 [14]): 28.7

C#CC(C)(C)Oc1ccc(CNc2nc(N(C)c3ccc(OC)cc3)c3ccccc3n2)cc1
pIC50 (K562 [1]): 6.29 | selectivity ratio at 72 h [2]: 11.4 | Ratio IC50 (H22 [3]): 24.5 | pIC50 (H22 [4]): 6.33 | pIC50 (HepG2 [5]): 6.31 | Ratio IC50 (HepG2 [6]): 34.1 | IC50 at 72 h [7]: 516 nM | t1/2 [8]: 5.8 h | Ratio IC50 (K562 [9]): 26

COc1ccc(CNC(=O)c2cc(F)ccc2N2CCOCC2)cc1O
Activity (Tubulin (Homo sapiens) [15]): Active | Activity (HepG2 [16]): Active | inhibition (Tubulin (Homo sapiens) [17]): Active | pIC50 (K562 [1]): 7.80 | Activity (K562 [18]): 59.77% | inhibition (Tubulin (Homo sapiens) [19]): Active | Activity (K562 [20]): 45.95% | Activity (Tubulin (Homo sapiens) [21]): Active | Activity (HepG2 [22]): Active | inhibition [23]: Active | Activity (K562 [24]): 32.73% | inhibition (Tubulin (Homo sapiens) [25]): Active | pIC50 (H22 [4]): 7.69 | pIC50 (HepG2 [5]): 7.72 | inhibition (Tubulin (Homo sapiens) [26]): Active | Activity (K562 [27]): 20.68% | Activity (HepG2 [28]): Active | IC50 at 72 h [7]: 21.4 nM | inhibition in vivo at 20 mg/kg (HepG2 [29]): 49.6% | inhibition (Tubulin (Homo sapiens) [30]): Active | Activity (K562 [31]): Active | Activity (Tubulin (Homo sapiens) [32]): Active | inhibition (Tubulin (Homo sapiens) [33]): Active | Activity (K562 [34]): 21.32% | Activity (K562 [35]): 4.31% | viability at 0.02 µM (K562 [36]): 15.2%

C#CCOc1ccc(CNc2nc(N(C)c3ccc(OC)cc3)c3ccccc3n2)cc1
pIC50 (K562 [1]): 6.33 | selectivity ratio at 72 h [2]: 15.5 | Ratio IC50 (H22 [3]): 11.8 | pIC50 (H22 [4]): 6.64 | pIC50 (HepG2 [5]): 6.04 | Ratio IC50 (HepG2 [6]): 63.5 | IC50 at 72 h [7]: 703 nM | t1/2 [8]: 4.2 h | Ratio IC50 (K562 [9]): 24.1

C=CCOc1cc(CNC(=O)c2cc(F)ccc2N2CCOCC2)ccc1OC
selectivity ratio at 72 h [10]: 25.6 | pIC50 (K562 [1]): 5.40 | t1/2 [11]: > 24 h | pIC50 (H22 [4]): 6.55 | Ratio IC50 (HepG2 [12]): 28.2 | pIC50 (HepG2 [5]): 6.27 | Ratio IC50 (H22 [13]): 13.9 | IC50 at 72 h [7]: 5470 nM | Ratio IC50 (K562 [14]): 248.8

COc1ccc(N(C)c2nc(NCc3ccc(O)cc3)nc3ccccc23)cc1
pIC50 (K562 [1]): 7.71 | pIC50 (H22 [4]): 7.71 | pIC50 (HepG2 [5]): 7.84 | IC50 at 72 h [7]: 45.4 nM
